Test results taken from US20230416341A1, “IMPROVED THROMBIN INHIBITORS FOR TREATMENT OF THROMBOEMBOLIC CONDITIONS” (priority 2020, published 2023).

Assay: Blood loss after 3 mm tail transection (haemoglobin assay)
Details: mouse, in vivo, 10 mg/kg, 30 min
From the text: “Blood loss” generally refers excessive bleeding or haemorrhage. Minor haemorrhage refers to clinically insignificant bleeding. Major haemorrhage refers to internal bleeding or when the individual loses sufficient amounts of blood to cause a haemodynamic instability. Blood loss may be measured clinically by measuring blood pressure, pulse rate, haemoglobin levels, urea levels in the blood, and/or by imaging. Indicators of major haemorrhage will be clear to a person skilled in the art. Blood loss may also be determined experimentally for example by measuring the total volume of blood collected from a mouse tail transection and may be quantified by measurement of haemoglobin (mg/dL) present in the total volume of blood lost during a specified observation period (for example 20 minutes). Total haemoglobin may be assessed via a commercially available Haemoglobin colorimetric assay kit (Cat #MAK115; Sigma-Aldrich).
Blood loss was assessed by carrying out a 3 mm tail transection (lop) in rodents, to assess blood loss following compound/drug administration. Tail lop was performed using a standard transection 3 mm from the tip of the tail (Schoenwaelder et al, 2011, Blood). The tail was immediately immersed in pre-warmed sterile saline (37° C.) and time to bleeding cessation and rebleeding events monitored for 30 minutes following transection. […]

## CC1CNc2c(cccc2S(=O)(=O)N[C@@H](CCCNC(=N)N)C(=O)N2CC[C@@H](C)C[C@@H]2C(=O)O)C1 (stereo partly shown) [argatroban]
  blood loss (haemoglobin): over 2000 mg/dL
